In article PMC3820480 (Nature, 2013):

Tests used:
[1] = system: GCGR; conditions: antagonist to glucagon; no reference given; cited from earlier work
[2] = system: GCGR mutants of Trp295 and Asn298; test: Whole-cell glucagon binding assay, ECL2 mutants Trp295 and Asn298; design: species or system human; conditions: CHO-K1 cells, 40 pM 125I-glucagon, room temperature, 3 h

Compound | mode of antagonism [1] | effect of mutation of ECL2 residues on ligand binding [2]
CS(=O)(=O)c1cccc(NC(=O)N(Cc2ccc(C(=O)Nc3nn[nH]n3)cc2)c2ccc(C3CCCCC3)cc2)c1 [NNC0640] | competitive antagonist to glucagon | 
glucagon: 29 amino acid hormonal peptide, glucagon (Supplementary Fig. 1a) |  | strongly affects ligand binding
